According to patent US5332812A, “Solid-phase substrate containing modified heparin” (Board of Regents, The University of Texas System, priority 1991, dated 1994):
Entries after “also recorded” stand apart in the source; their conditions may differ.

Key:
B16 melanoma heparanase [1] = assay: Enzymatic degradation of 3H-labeled glycosaminoglycans by B16 melanoma cell extract, analysed by high-speed gel permeation chromatography; assay type: biochemical, mouse; settings: for Degradation (heparanase susceptibility): 3H-labeled glycosaminoglycan, cell extract 80 ug protein, pH 6.0, 6 hr at 37 C, 20 mM SAL, decrease in area of high Mr half of peak; for Percentage degradation of the original substrate: first 6 h incubation with B16 cell extract; for Cleavage by melanoma heparanase (in words): B16 melanoma cell extracts in presence of SAL, FIG. 2
Description: The abilities of B16 cells to degrade HS from various origins and other purified glycosaminoglycans (heparin, chondroitin 4-sulfate, chondroitin 6-sulfate, dermatan sulfate, keratan sulfate, and hyaluronic acid) has been studied. […] HS metabolically labeled with [^35 S] sulfate was purified from basement membrane producing EHS sarcoma and PYS-2 carcinoma cells, and subendothelial matrices of bovine aortic endothelial (BAE) and corneal endothelial (BCE) cells (ibid). HS molecules purified from bovine lung and other glycosaminoglycans were labeled with tritium at their reducing termini using NaB[^3 H]4. […] In order to determine specific HS cleavage points, the newly formed reducing termini of HS fragments were investigated by: labeling with NaB[^3 H]4; hydrolysis to monosaccharides; and analysis of these saccharides by paper chromatography.
High-speed gel permeation chromatography. […] A one hundred microliter aliquot of sample solution was delivered into the injection port, and the chromatographic elution was performed with 0.2M sodium chloride at a flow rate of 1.0 ml/min at 55° C. […] In the analysis of radiolabeled materials, fractions corresponding to each 36 s of elution (0.6 ml) were collected and mixed with 3.0 ml of Liquiscint (National Diagnostics, Comerville, N.J.), and counted on a Beckman LS 2800 liquid scintillation counter (Beckman Instruments, Irvine, Calif.).
Enzymatic degradation of unmodified and modified HS. […] The incubation was carried out at 37° C. with gentle mixing, and was terminated by chilling the mixture to 4° C. and adding 20 ul of trichloroacetic acid to a final concentration of 5%. The supernatant was obtained by centrifugation at 9800×g for 5 min and it was subjected to analysis by high-speed gel permeation chromatography.
The effect of N-desulfation and N-acetylation of HS on its susceptibility to melanoma heparanase was assessed using HS labeled with tritium at the reducing terminal saccharide. […] HS labeled with tritium at the reducing end was N-desulfated by solvolysis with DMSO, and N-desulfated [^3 H]HS was then N-acetylated with acetic anhydride. These three ^3 H-labeled, chemically modified HS molecules were analyzed by cellulose acetate electrophoresis in 0.5M pyridine-acetate buffer, pH 5.0.
N-Desulfated and N-acetylated heparin.

B16 melanoma heparanase [2] = settings: labeled glycosaminoglycans, with or without D-saccharic acid 1,4-lactone; cited from earlier work
B16 melanoma heparanase [3] = settings: cited from earlier work
[4] = tested on: human melanoma heparanase; assay: Inhibition of human melanoma heparanase; assay type: biochemical
Description: Properties of human melanoma heparanase.

[5] = tested on: human melanoma heparanase; assay: Degradation by heparanase obtained from a human melanoma cell line; assay type: biochemical

| Substance | Degradation (heparanase susceptibility) (B16 melanoma heparanase [1]) | Degradation by B16 cell extracts (earlier publications) (B16 melanoma heparanase [2]) | further results |
| --- | --- | --- | --- |
| hyaluronic acid | – | essentially undegraded | – |
| N-Desulfated heparin | - (less than 5%) | – | – |
| dextransulfate | – | – | Inhibition of melanoma heparanase (in words) [4]: potent inhibitors |
| keratan sulfate | – | essentially undegraded | – |
| chondroitin 4-sulfate | – | essentially undegraded | – |
| chondroitin 6-sulfate | – | essentially undegraded | – |
| dermatan sulfate | – | essentially undegraded | – |
| N-desulfated N-acetylated heparan sulfate [N-Desulfated and N-acetylated HS] | + (more than 80%) | – | Cleavage by melanoma heparanase (in words) (B16 melanoma heparanase [1]): cleaved by melanoma heparanase at high rates; Degradation by human melanoma heparanase (in words) [5]: efficiently cleave |
| N,O-Desulfated and N-acetylated heparin | ± (5% to 15%) | – | – |
| Heparan sulfate [Heparan sulfate (HS)] | + (more than 80%) | degraded into fragments of characteristic molecular weight | Cleavage by melanoma heparanase (in words) (B16 melanoma heparanase [1]): cleaved by melanoma heparanase at high rates; Degradation by human melanoma heparanase (in words) [5]: degrades heparan sulfate |

More lines, main results first:

| Degradation (heparanase susceptibility) (B16 melanoma heparanase [1]) | Substance | Degradation by B16 cell extracts (earlier publications) (B16 melanoma heparanase [2]) | further results |
| --- | --- | --- | --- |
| - (less than 5%) | Heparin | essentially undegraded; also recorded: inactive | Percentage degradation of the original substrate (B16 melanoma heparanase [1]): less than 5%; Inhibition of HS degradation / B16 melanoma heparanase (earlier publications) (B16 melanoma heparanase [3]): inhibited HS degradation; also recorded: potent inhibitor; Inhibition of melanoma heparanase (in words) [4]: potent inhibitors |
| + (more than 80%) | N,O-Desulfated HS | – | – |
| ± (5% to 15%) | N-desulfated N-acetylated heparin [N-Desulfated and N-acetylated heparin] | – | Percentage degradation of the original substrate (B16 melanoma heparanase [1]): approximately 20%; Further cleavage after prolonged incubation (B16 melanoma heparanase [1]; prolonged incubation with B16 cell extract): not further cleaved; Degradation by human melanoma heparanase (in words) [5]: only partially degrade |
| + (more than 80%) | N-desulfated heparan sulfate [N-Desulfated HS] | – | Cleavage by melanoma heparanase (in words) (B16 melanoma heparanase [1]): cleaved by melanoma heparanase at high rates; Degradation by human melanoma heparanase (in words) [5]: efficiently cleave |
| - (less than 5%) | N,O-Desulfated heparin | – | – |
| - (less than 5%) | Carboxyl reduced heparin | – | – |
| - (less than 5%) | N-Desulfated and N-methylated heparin | – | – |
| + (more than 80%) | N,O-Desulfated and N-acetylated HS | – | – |
